From a melting point compilation (Tetko et al.; mined from patent text by program, amines drawn as free bases though some values may be those of a salt)

melting point [°C]	SMILES
120 to 122	CC1(C)OC2c3cc(F)ccc3N3CCC2(CC3)O1 (configuration not stated)
145 to 147	Fc1cccc(-c2ccc3nnn(Cc4ccc5ncccc5c4)c3n2)c1
165 to 166	O=C(O)c1cccc(-c2cccc3oc(Cc4cccc(C(F)(F)F)c4)nc23)c1
210 to 211	O=P(Oc1ccc(S(=O)(=O)c2ccc(OP(=O)(c3ccccc3)c3ccccc3)cc2)cc1)(c1ccccc1)c1ccccc1
108	CCn1cc(CN(C(=O)Nc2c(C)cccc2C)c2ccc(C(C)C)cc2)cn1
146 to 148	O=C1CCC(=O)N1SCc1ccc([N+](=O)[O-])cc1
283 to 286	Cn1nc(-c2ccc(C#N)cc2)cc(C(=O)N[C@H]2CC[C@H](C(=O)O)CC2)c1=O
283 to 287	COc1ccc(Nc2nc3cc4c(cc3[nH]2)C(C)(C)CC(=O)N4)cc1
176 to 180	CCCCc1nc2c(n1Cc1ccc(C(=O)OC)cc1)C[C@@H](C(=O)O)N(C(=O)C(c1ccccc1)c1ccccc1)C2
228 to 230	CC1(C)Oc2ccc(C#N)cc2[C@@H](NC=O)[C@@H]1O (relative stereo)
295 to 298	NC(=O)C1CN(c2c(F)cc3c(=O)c(C(=O)O)cn(C4CC4)c3c2F)C1
152 to 154	C=CCc1cc2c(c(CC=C)c1O)CCC(=O)N2CCCNC(=O)CCl
131 to 133	CC(CCCC(C)(C)Cl)C1CC=C2C3=C(CCC21C)C1(C)CCC(O)C(C)(C)C1CC3 (configuration not stated)
142	O=C1NCc2ccccc2N1
192 to 194	O=C(O)c1cn(C2CCC2)c2c(F)c(F)c(F)cc2c1=O
77 to 79	O=c1oc2ccccc2n1CCCl
87 to 89	CCOC(C)n1c(C)nc(-c2ccccc2)c1-c1ccccc1 (configuration not stated)
267 to 271	COc1ccc(-c2c(-c3ccncc3)sc3nc(=O)cc(N)n23)cc1
204	OC1CSC(Oc2cncc(-c3ccnc(Cl)c3)c2)C(O)C1O (configuration not stated)
220 to 221	CCn1nc(-c2ccccc2)c(C(C)=O)c(Nc2cccc3ncccc23)c1=O
96 to 98	CC(C)(C)CC(C)(C)NC(=O)CCON(Cc1ccccc1)Cc1ccccc1
152 to 155	N#Cc1ccc(Cn2cc(C=CC=O)nn2)cc1
177 to 178	Cc1c(NC(=O)c2ccc(OCc3ccc(F)cc3)cc2)ccc2cc(CN3CCCC3)cnc12
110 to 111	COC(=O)NOCC(=O)OCOC(=O)Oc1c(Br)cc(C#N)cc1Br
222 to 224	COc1ccc2c(C(=S)N(C)CC(N)=O)c(F)ccc2c1C(F)(F)F

melting point [°C]	SMILES
163 to 165	CSc1c(Cl)c(O)nn1C
193 to 195	Cc1cc(Nc2nccc(N3CCC(C)CC3)n2)[nH]n1
128 to 129	N#Cc1ccc2c(c1)CC[C@@H]1CC(=O)CC[C@@]21Cc1ccccc1
62 to 63	CO[C@](C)(c1cc(F)cc(OCc2ccc3ccccc3c2)c1)[C@H](C)O (racemic)
92 to 93	Cc1c(CCl)sc2cc(Br)ccc12
192	O=C(O)CNC(=O)Nc1ccc(CC(=O)OCc2ccccc2)cc1
158 to 159	CC1CC(C)(C)Nc2ccc3c(c21)C(c1ccc(Cl)cc1)Oc1ccccc1-3 (configuration not stated)
160 to 162	CCC(C)CNN(NCC(C)CC)C(=O)c1cc(NC(=O)CCl)cc(C(N)=O)c1 (configuration not stated)
59	CC1(C)OC(=O)N[C@H]1Cc1ccccc1
188 to 192	CC(C)(C)c1ccc(C=CC2=CC(c3ccc(C(C)(C)C)cc3)N(c3ccccc3)N2)cc1 (configuration not stated)
220 to 221	CCOC(=O)/C=C/C1N(C(C)C)C(=O)c2ccccc2C1(O)c1ccc(F)cc1 (configuration not stated)
78 to 82	CC(C)(C)C(=O)Nc1ccncc1C(=NN)c1ccccc1F
209 to 211	CCCn1nc2c(N)nc3ccccc3c2c1CC1(O)CCOCC1
80 to 83	O=C1c2ccccc2C(=O)N1c1ccccc1CSc1nccn1Cc1ccccn1
146 to 147	CCC(C)(CC)C(=O)C=C(P(=O)(O)O)P(=O)(O)O
> 250	CN1C(=O)C2(COc3cc4c(cc32)OCCO4)c2c(O)cccc21 (configuration not stated)
59 to 61	CCCOc1cc([N+](=O)[O-])ccc1N
87 to 88	CC1(C)CCCC2(C)C3CC=C(C=O)CC(=O)C3CCC12 (configuration not stated)
102 to 104	CSc1ccc(C=C2CCc3cc(OCCn4ccnc4)ccc3C2=O)s1
204 to 205	COc1cc(OC)c2c(=O)[nH]c(-c3cc(C)c(OCCN4CCC4)c(C)c3)nc2c1
300	Nc1nc(O)nc(Cl)n1
191 to 192	Cn1nccc(N)c1=O
157 to 158	N#Cc1c(N)n[nH]c1N1CCN(Cc2ccccc2)CC1
133 to 136	CC(=O)CCOc1c(-c2ccc(S(C)(=O)=O)cc2)cnn(-c2ccc(F)cc2)c1=O
72 to 73	CCCC(C)c1nn(-c2ccc(C(F)(F)F)cn2)cc1CCCO (configuration not stated)

melting point [°C]	SMILES
108 to 110	COC(=O)C(=O)CC(=O)c1ccc(Cl)cc1
135 to 136	COC(=O)Cc1cn(C2CCCCC2)nc1O
135 to 136	CCOC(=O)c1c(C)ncn1-c1ccc(Cl)c(Cl)c1
109 to 110	CC(C)C1(c2ccccc2)OC(C(=O)OCc2cccnc2)=CC1=O (configuration not stated)
45 to 47	Cc1ccc(Oc2ccc(OC(=O)NC(C)CCCC(C)C)cc2)cc1 (configuration not stated)
196 to 198	N#CNC(=N)Nc1cc(Cl)cc(Cl)c1
133 to 136	COC(=O)c1c(C)cc2cc(OC)c(OC)cc2c1-c1ccnc(Cl)c1
30	CCCCCCCCc1ccc(C=CCO)cc1
51 to 53	C=Cc1ccc(C(=O)OC(C)(C)C)c(C#N)c1
203 to 204	COc1cc(C=C2CCN(C(=O)NO)C2=O)cc(OC)c1O
168 to 170	CCn1ncc2c3noc(-c4ccccc4C)c3cnc21
179 to 180	Cc1oc(-c2ccccc2)nc1COc1ccc2cc(CC3SC(=O)NC3=O)oc2c1 (configuration not stated)
180 to 181	CCc1cccc(C)c1S(=O)(=O)c1nc[nH]n1
148 to 150	CC(C)(C)OC(=O)NCCNC(=O)c1cocn1
139 to 141	COC(=O)CCC(Oc1cccc2c1cc(C)n2Cc1ccccc1)C(=O)OC (configuration not stated)
174 to 181	CC(C)S(=O)(=O)C1C(=O)N(Cc2ccccc2F)C(=O)c2ccccc21 (configuration not stated)
280 to 282	N#CC(C(=O)Nc1ccccc1)C(=O)c1nn(-c2ccccc2)c2c1COc1ccccc1-2 (configuration not stated)
47	O=C(CCCCCCCCC(=O)OCCO)OCCO
116	O=C(CCc1cc(-c2ccccc2)nc2ccccc12)N1CCCC1
135 to 138	O=C(O)c1nc2ccc(NCCCN3CCC(OC(c4ccccc4)c4ccccc4)CC3)nn2n1
105 to 108	Cc1cccc(-c2[nH]c(C(C)C)nc2-c2ccc(F)c(-c3ccc(S(C)(=O)=O)cn3)c2)n1
185	COc1ccc(-c2nc(C(=O)c3ccc([N+](=O)[O-])c(OC)c3)n3ccccc23)cc1
198	Cn1cnc2c([N+](=O)[O-])cc(Br)cc21
79 to 80	CC(C)N(CCC(CCN1CCCC1)(C(N)=O)c1ccccc1)C(C)C (configuration not stated)
220 to 221	Oc1ccc2cc(-c3cc4ccccc4s3)ccc2c1Cl

melting point [°C]	SMILES
250 to 253	O=c1cc(O)c2cccnc2n1Cc1ccccc1
262	Cc1cc(-c2cc(C(F)(F)F)n3ncc(-c4nc(-c5ccc(N)nc5)no4)c3n2)ccc1Cl
69 to 70	C=CCC1=C(Cl)C(=O)c2ccccc2C1=O
150	COc1ccc(NCCNc2ccc([N+](=O)[O-])cc2)cc1
93 to 99	CCCCCCCCCCCCCCCc1cc2cccc(C(=O)O)c2[nH]1
253 to 254	Cc1c(N2C[C@H](C)[C@H](NC(=O)C(F)(F)F)C2)c(F)c(N)c2c(=O)c(C(=O)O)cn(C3CC3)c12 (relative stereo)
250 to 251	NC(=O)c1ccc(NC(=O)CCc2cnoc2-c2ccccc2)cc1
77 to 80	Cc1cnccc1CO
120 to 130	O=C(O)[C@H](Cc1ccccc1)NS(=O)(=O)c1ccc2c(c1)Sc1ccccc1O2
197 to 199	Nc1nc(N)nc(-c2ccc(NS(=O)(=O)c3ccccc3)cc2)n1
197	CC(C)(C)C1CCCC=C1c1ccc(C(=O)O)cc1 (configuration not stated)
170	CN1CCN(c2cc(NC(=O)OC(C)(C)C)c([N+](=O)[O-])cc2C#Cc2ccccc2)CC1
107 to 108	O=C(CCCl)N1c2ccccc2CCc2ccccc21
108 to 129	CC(NC(=O)C1C(O)N(Cc2ccccc2)C(=O)N1Cc1ccccc1)c1cccs1 (configuration not stated)
232 to 236	Cc1nc[nH]c1CSCCNC1=NC(=O)C(C)(C)N1
42 to 45	CCOC(=O)C(C)(C)c1ccc(Br)c([N+](=O)[O-])c1
178	O=C(NCCCCCCOc1ccccc1C(=O)Nc1ccc(C(=O)N2CCCCc3ccccc32)cc1)c1ccccc1
310	O=S(=O)(Nc1ccncc1)c1ccc(Br)s1
93 to 94	COC(=O)Cc1ccc(OCc2ccc(OCc3nc(-c4ccccc4)oc3C)cc2)cc1
142 to 144	CCCCCCCNC(=O)Nc1ccc(N(C)C)cc1C(=O)NCC1CCCN(C(c2ccccc2)c2ccccc2)C1 (configuration not stated)
214 to 216	COc1ccc(-c2c(Cl)c(CN3C(=O)CCC3=O)nc3sc4c(c23)CC(C)(C)C(=O)C4(C)C)cc1
280 to 284	COc1cccc(NC(=O)C(C#N)C(=O)c2nn(-c3ccccc3)c3c2Cc2ccccc2-3)c1 (configuration not stated)
137 to 138	CC(=O)Oc1cc(Oc2ccccc2)c(OC(C)=O)c2ccccc12

SMILES	melting point [°C]
Cc1ccc2c(CCN)c[nH]c2c1C	171 to 173
CC1=C(c2ccc(C#N)c3ccccc23)CCC1O (configuration not stated)	113 to 114
COc1cc(N2CCNCC2)cc(OC)c1OC	73 to 77
COC(=O)CN1C(=S)CN=C(c2ccccc2)c2cc(Cl)ccc21	180 to 182
